Data reported in ChEMBL document CHEMBL5620398, “Membrane-active substituted triazines as antibacterial agents against Staphylococcus aureus with potential for low drug resistance and broad activity” (Eur J Med Chem, 2023).
In brackets after ≈: the same amount, converted by molar mass. Activity calls are given as the source filed them. No cut-off for these calls is given here.

Experiments:
Enterococcus faecalis [1] = experiment: Antibacterial activity against Enterococcus faecalis assessed as inhibition of bacterial growth by two-fold serial broth dilution method; type: functional
[2] = test system: Acinetobacter calcoaceticus; experiment: Antibacterial activity against Acinetobacter calcoaceticus assessed as inhibition of bacterial growth by two-fold serial broth dilution method; type: functional
Escherichia coli = experiment: Antibacterial activity against Escherichia coli assessed as inhibition of bacterial growth by two-fold serial broth dilution method; type: functional
Listeria = experiment: Antibacterial activity against Listeria sps. assessed as inhibition of bacterial growth by two-fold serial broth dilution method; type: functional
Serratia marcescens = experiment: Antibacterial activity against Serratia marcescens assessed as inhibition of bacterial growth by two-fold serial broth dilution method; type: functional
Salmonella enterica = experiment: Antibacterial activity against Salmonella enterica assessed as inhibition of bacterial growth by two-fold serial broth dilution method; type: functional
Bacillus subtilis = experiment: Antibacterial activity against Bacillus subtilis assessed as inhibition of bacterial growth by two-fold serial broth dilution method; type: functional
Staphylococcus aureus = experiment: Antibacterial activity against Staphylococcus aureus assessed as inhibition of bacterial growth by two-fold serial broth dilution method; type: functional
Enterococcus faecalis [3] = experiment: Potency index, ratio of amoxicillin MIC to test compound MIC for antibacterial activity against Enterococcus faecalis; type: functional
Enterococcus faecalis [4] = experiment: Potency index, ratio of chloromycin MIC to test compound MIC for antibacterial activity against Enterococcus faecalis; type: functional
SK-MEL-5 = experiment: Cytotoxicity against human SK-MEL-5 cells assessed as inhibition of cell growth at 10 uM; type: functional
HOP-92 = experiment: Cytotoxicity against human HOP-92 cells assessed as inhibition of cell growth at 10 uM; type: functional
MOLT-4 = experiment: Cytotoxicity against human MOLT-4 cells assessed as inhibition of cell growth at 10 uM; type: functional
HEK293 [5] = experiment: Cytotoxicity against human HEK293 cells at 10 uM by MTT assay; type: toxicity, cell-based; settings: hek293, 10 µM
A498 = experiment: Cytotoxicity against human A498 cells at 10 uM; type: functional
MDA-MB-435 = experiment: Cytotoxicity against human MDA-MB-435 cells at 10 uM; type: functional
HEK293 [6] = experiment: Cytotoxicity against human HEK293 cells at 0.1 uM by MTT assay; type: toxicity, cell-based; settings: hek293, 0.1 µM
M14 = experiment: Cytotoxicity against human M14 cells assessed as inhibition of cell growth at 10 uM; type: functional
MDA-MB-468 = experiment: Cytotoxicity against human MDA-MB-468 cells at 10 uM; type: functional
HEK293 [7] = experiment: Cytotoxicity against human HEK293 cells at 0.01 uM by MTT assay; type: toxicity, cell-based; settings: hek293, 0.01 µM
HEK293 [8] = experiment: Cytotoxicity against human HEK293 cells at 1 uM by MTT assay; type: toxicity, cell-based; settings: hek293, 1 µM
HEK293 [9] = experiment: Cytotoxicity against human HEK293 cells at 100 uM by MTT assay; type: toxicity, cell-based; settings: hek293, 100 µM
COLO 205 = experiment: Cytotoxicity against human COLO 205 cells assessed as inhibition of cell growth at 10 uM; type: functional

Compound | MIC (Enterococcus faecalis [1]) | MIC [2] [µg/mL] | MIC (Escherichia coli) | MIC (Listeria) | MIC (Serratia marcescens) | MIC (Salmonella enterica) | MIC (Bacillus subtilis) | MIC (Staphylococcus aureus) [µg/mL] | also measured
O=C1c2cccc3cccc(c23)C(=O)N1Nc1nc(N2CCOCC2)nc(N2CCOCC2)n1 | 200 µg/mL (≈ 433 µM) | 200 (≈ 433 µM) | 200 µg/mL (≈ 433 µM) | 200 µg/mL (≈ 433 µM) | 200 µg/mL (≈ 433 µM) | 100 µg/mL (≈ 217 µM) | 100 µg/mL (≈ 217 µM) | 1.56 (≈ 3.38 µM) | –
CC1(C)S[C@@H]2[C@H](NC(=O)[C@H](N)c3ccc(O)cc3)C(=O)N2[C@H]1C(=O)O [AMOXICILLIN] | 1.56 µg/mL (≈ 4.27 µM) | 50 (≈ 137 µM) | 100 µg/mL (≈ 274 µM) | 50 µg/mL (≈ 137 µM) | 1.56 µg/mL (≈ 4.27 µM) | 200 µg/mL (≈ 547 µM) | 50 µg/mL (≈ 137 µM) | 25 (≈ 68.4 µM) | –
CCCCNc1nc(NN2C(=O)c3cccc4cccc(c34)C2=O)nc(N2CCOCC2)n1 | 0.09 µg/mL (≈ 0.201 µM) | 200 (≈ 447 µM) | 400 µg/mL (≈ 894 µM) | 200 µg/mL (≈ 447 µM) | 200 µg/mL (≈ 447 µM) | 100 µg/mL (≈ 223 µM) | 25 µg/mL (≈ 55.9 µM) | 12.5 (≈ 27.9 µM) | Ratio (Enterococcus faecalis [3]): 17; Ratio (Enterococcus faecalis [4]): 34
CN(C)CCNc1nc(NN2C(=O)c3cccc4cccc(c34)C2=O)nc(N2CCOCC2)n1 | 200 µg/mL (≈ 432 µM) | 100 (≈ 216 µM) | 200 µg/mL (≈ 432 µM) | 50 µg/mL (≈ 108 µM) | 25 µg/mL (≈ 54.1 µM) | 100 µg/mL (≈ 216 µM) | 200 µg/mL (≈ 432 µM) | 100 (≈ 216 µM) | –
Cc1ccc(CNc2nc(NN3C(=O)c4cccc5cccc(c45)C3=O)nc(N3CCOCC3)n2)cc1 | 50 µg/mL (≈ 101 µM) | 100 (≈ 202 µM) | 200 µg/mL (≈ 404 µM) | 25 µg/mL (≈ 50.4 µM) | 100 µg/mL (≈ 202 µM) | 200 µg/mL (≈ 404 µM) | 12.5 µg/mL (≈ 25.2 µM) | 12.5 (≈ 25.2 µM) | –
CCN1CCN(c2nc(NN3C(=O)c4cccc5cccc(c45)C3=O)nc(N3CCOCC3)n2)CC1 | 200 µg/mL (≈ 409 µM) | 200 (≈ 409 µM) | 100 µg/mL (≈ 205 µM) | 3.12 µg/mL (≈ 6.39 µM) | 100 µg/mL (≈ 205 µM) | 200 µg/mL (≈ 409 µM) | 200 µg/mL (≈ 409 µM) | 50 (≈ 102 µM) | –
O=C1c2cccc3cccc(c23)C(=O)N1Nc1nc(NCCN2CCOCC2)nc(N2CCOCC2)n1 | 200 µg/mL (≈ 396 µM) | 200 (≈ 396 µM) | 100 µg/mL (≈ 198 µM) | 0.048 µg/mL (≈ 0.0951 µM) | 50 µg/mL (≈ 99.1 µM) | 200 µg/mL (≈ 396 µM) | 200 µg/mL (≈ 396 µM) | 3.12 (≈ 6.18 µM) | –
O=C1c2cccc3cccc(c23)C(=O)N1Nc1nc(N2CCCCC2)nc(N2CCOCC2)n1 | inactive | 200 (≈ 435 µM) | 400 µg/mL (≈ 870 µM) | 50 µg/mL (≈ 109 µM) | 200 µg/mL (≈ 435 µM) | 200 µg/mL (≈ 435 µM) | 6.25 µg/mL (≈ 13.6 µM) | 1.56 (≈ 3.39 µM) | –
CCN(CC)CCNc1nc(NN2C(=O)c3cccc4cccc(c34)C2=O)nc(N2CCOCC2)n1 | 200 µg/mL (≈ 408 µM) | 200 (≈ 408 µM) | 200 µg/mL (≈ 408 µM) | 0.19 µg/mL (≈ 0.387 µM) | 12.5 µg/mL (≈ 25.5 µM) | 200 µg/mL (≈ 408 µM) | 50 µg/mL (≈ 102 µM) | 100 (≈ 204 µM) | –
O=c1[nH]cc(F)c(=O)[nH]1 [FLUOROURACIL] | – | – | – | – | – | – | – | – | inhibition at 10 µM (SK-MEL-5): 66.3%; inhibition at 10 µM (HOP-92): 50.6%; inhibition at 10 µM (MOLT-4): 42.3%
C#CCNc1nc(NN2C(=O)c3cccc4cccc(c34)C2=O)nc(N2CCOCC2)n1 | 0.048 µg/mL (≈ 0.112 µM) | 200 (≈ 466 µM) | 100 µg/mL (≈ 233 µM) | 200 µg/mL (≈ 466 µM) | 200 µg/mL (≈ 466 µM) | 100 µg/mL (≈ 233 µM) | 25 µg/mL (≈ 58.2 µM) | 50 (≈ 116 µM) | –
COc1ccc(CNc2nc(NN3C(=O)c4cccc5cccc(c45)C3=O)nc(N3CCOCC3)n2)cc1 | 3.12 µg/mL (≈ 6.11 µM) | 100 (≈ 195 µM) | 200 µg/mL (≈ 391 µM) | 50 µg/mL (≈ 97.7 µM) | 200 µg/mL (≈ 391 µM) | 100 µg/mL (≈ 195 µM) | 12.5 µg/mL (≈ 24.4 µM) | 6.25 (≈ 12.2 µM) | –
N#Cc1ccc(CNc2nc(NN3C(=O)c4cccc5cccc(c45)C3=O)nc(N3CCOCC3)n2)cc1 | 100 µg/mL (≈ 197 µM) | 100 (≈ 197 µM) | 200 µg/mL (≈ 395 µM) | 200 µg/mL (≈ 395 µM) | 200 µg/mL (≈ 395 µM) | 400 µg/mL (≈ 790 µM) | 400 µg/mL (≈ 790 µM) | 100 (≈ 197 µM) | –
C=CCNc1nc(NN2C(=O)c3cccc4cccc(c34)C2=O)nc(N2CCOCC2)n1 | 100 µg/mL (≈ 232 µM) | 100 (≈ 232 µM) | 200 µg/mL (≈ 464 µM) | 100 µg/mL (≈ 232 µM) | 200 µg/mL (≈ 464 µM) | 200 µg/mL (≈ 464 µM) | 50 µg/mL (≈ 116 µM) | 25 (≈ 57.9 µM) | –
O=C1c2cccc3cccc(c23)C(=O)N1Nc1nc(N2CCOCC2)nc(N2CCN(c3ccccc3)CC2)n1 | 200 µg/mL (≈ 373 µM) | 200 (≈ 373 µM) | inactive | 0.39 µg/mL (≈ 0.727 µM) | 50 µg/mL (≈ 93.2 µM) | 200 µg/mL (≈ 373 µM) | 50 µg/mL (≈ 93.2 µM) | 100 (≈ 186 µM) | Activity (HEK293 [5]): 12%; Activity (A498): -3.13%; inhibition at 10 µM (SK-MEL-5): 95%; Activity (MDA-MB-435): -12.6%; Activity (HEK293 [6]): 13.57%; inhibition at 10 µM (HOP-92): 92.5%; inhibition at 10 µM (M14): 80.6%; Activity (MDA-MB-468): -15.85%; Activity (HEK293 [7]): 14.05%; Activity (HEK293 [8]): 13.01%; Activity (HEK293 [9]): 10.08%; inhibition at 10 µM (COLO 205): 96.5%; inhibition at 10 µM (MOLT-4): 81.6%
O=C1c2cccc3cccc(c23)C(=O)N1Nc1nc(NC2CCCCC2)nc(N2CCOCC2)n1 | 3.12 µg/mL (≈ 6.59 µM) | 200 (≈ 422 µM) | 200 µg/mL (≈ 422 µM) | 25 µg/mL (≈ 52.8 µM) | 200 µg/mL (≈ 422 µM) | 200 µg/mL (≈ 422 µM) | 50 µg/mL (≈ 106 µM) | 100 (≈ 211 µM) | –
O=C1c2cccc3cccc(c23)C(=O)N1Nc1nc(N2CCOCC2)nc(N2CCN(Cc3ccccc3)CC2)n1 | 200 µg/mL (≈ 363 µM) | 200 (≈ 363 µM) | 200 µg/mL (≈ 363 µM) | 6.25 µg/mL (≈ 11.4 µM) | 50 µg/mL (≈ 90.8 µM) | 200 µg/mL (≈ 363 µM) | 200 µg/mL (≈ 363 µM) | 100 (≈ 182 µM) | –
c1ccc(CNc2nc(NCc3ccccc3)nc(N3CCOCC3)n2)cc1 | 400 µg/mL (≈ 1060 µM) | 200 (≈ 531 µM) | inactive | inactive | inactive | inactive | inactive | 200 (≈ 531 µM) | –
CN1CCN(c2nc(NN3C(=O)c4cccc5cccc(c45)C3=O)nc(N3CCOCC3)n2)CC1 | 200 µg/mL (≈ 421 µM) | 200 (≈ 421 µM) | 100 µg/mL (≈ 211 µM) | 0.006 µg/mL (≈ 0.0126 µM) | 12.5 µg/mL (≈ 26.3 µM) | 200 µg/mL (≈ 421 µM) | 200 µg/mL (≈ 421 µM) | 1.56 (≈ 3.29 µM) | –
O=C1c2cccc3cccc(c23)C(=O)N1Nc1nc(NCc2ccc(F)cc2)nc(N2CCOCC2)n1 | 6.25 µg/mL (≈ 12.5 µM) | 100 (≈ 200 µM) | 100 µg/mL (≈ 200 µM) | 200 µg/mL (≈ 400 µM) | 200 µg/mL (≈ 400 µM) | 200 µg/mL (≈ 400 µM) | 100 µg/mL (≈ 200 µM) | 25 (≈ 50 µM) | –
O=C1c2cccc3cccc(c23)C(=O)N1Nc1nc(Nc2ccc(F)cc2)nc(N2CCOCC2)n1 | 200 µg/mL (≈ 412 µM) | 200 (≈ 412 µM) | 400 µg/mL (≈ 824 µM) | inactive | 200 µg/mL (≈ 412 µM) | 200 µg/mL (≈ 412 µM) | 200 µg/mL (≈ 412 µM) | 50 (≈ 103 µM) | –
